In BindingDB's records for doi:10.1016/j.bioorg.2017.01.017 (University of The Punjab, 2017):
pIC50: −log10 of the molar value.

Target: Alpha-glucosidase MAL12 (Saccharomyces cerevisiae (strain ATCC 204508 / S288c), UniProt P53341)
Experiment: α-Glucosidase Inhibition Assay
Method: Afterwards, 10 μL of 0.5 mM p-nitrophenyl-a-d-glucopyranoside (code No. N1377 fromSigma Inc) was added to instigate the reaction. Later 30 min incubation at 37 °C, yellow coloured p-nitrophenol was formed and the absorbance was again recorded at 400 nm to see the difference. These tests were performed in triplicates and suitable dilutions of samples were made for screening.

Chain of Alpha-glucosidase MAL12 (P53341 whole entry): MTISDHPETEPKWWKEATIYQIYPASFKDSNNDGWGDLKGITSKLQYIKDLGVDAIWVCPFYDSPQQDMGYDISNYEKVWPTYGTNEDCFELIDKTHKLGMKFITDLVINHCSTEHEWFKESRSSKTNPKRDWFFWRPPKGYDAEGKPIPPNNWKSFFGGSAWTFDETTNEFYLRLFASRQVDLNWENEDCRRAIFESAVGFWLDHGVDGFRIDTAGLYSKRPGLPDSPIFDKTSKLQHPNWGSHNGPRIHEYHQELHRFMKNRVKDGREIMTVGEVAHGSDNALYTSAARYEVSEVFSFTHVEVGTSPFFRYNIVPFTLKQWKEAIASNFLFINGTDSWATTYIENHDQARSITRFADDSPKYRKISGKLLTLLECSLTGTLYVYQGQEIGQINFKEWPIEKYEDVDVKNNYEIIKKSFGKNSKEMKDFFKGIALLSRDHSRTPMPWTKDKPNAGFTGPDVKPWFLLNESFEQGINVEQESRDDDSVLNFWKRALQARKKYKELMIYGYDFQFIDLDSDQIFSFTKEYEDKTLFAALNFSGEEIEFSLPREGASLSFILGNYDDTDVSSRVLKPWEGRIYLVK

Row | pIC50 | SMILES
1 | 4.92 | Brc1ccc(-c2nn(-c3ccccc3)cc2-c2nc(-c3ccccc3)c(-c3ccccc3)[nH]2)cc1 [3-(4-Bromophenyl)-4-(4,5-diphenyl-1H-imidazol-2-yl)-1-phenyl-1H-pyrazole (2c)]
2 | 4.89 | O=[N+]([O-])c1cccc(-c2nn(-c3ccccc3)cc2-c2nc(-c3ccccc3)c(-c3ccccc3)[nH]2)c1 [4-(4,5-Diphenyl-1H-imidazol-2-yl)-3-(3-nitrophenyl)-1-phenyl-1H-pyrazole (2f)]
3 | 4.68 | O=[N+]([O-])c1ccc(-c2nn(-c3ccccc3)cc2-c2nc(-c3ccccc3)c(-c3ccccc3)[nH]2)cc1 [4-(4,5-Diphenyl-1H-imidazol-2-yl)-3-(4-nitrophenyl)-1-phenyl-1H-pyrazole (2d)]
4 | 4.65 | c1ccc(-c2nn(-c3ccccc3)cc2-c2nc(-c3ccccc3)c(-c3ccccc3)[nH]2)cc1 [4-(4,5-Diphenyl-1H-imidazol-2-yl)-1,3-diphenyl-1H-pyrazole (2a)]
5 | 4.66 | Cc1nn(-c2ccc([N+](=O)[O-])cc2)c(C)c1-c1nc(-c2ccccc2)c(-c2ccccc2)[nH]1 [4-(4,5-Diphenyl-1H-imidazol-2-yl)-3,5-dimethyl-1-(4-nitrophenyl)-1H-pyrazole (2i)]
6 | 5.56 | O=c1oc2ccccc2cc1-c1nn(-c2ccccc2)cc1-c1nc(-c2ccccc2)c(-c2ccccc2)[nH]1 [3-(4-(4,5-diphenyl-1H-imidazol-2-yl)-1-phenyl-1H-pyrazol-3-yl)-2H-chromen-2-one (2j)]
7 | 4.88 | Clc1ccc(-c2nn(-c3ccccc3)cc2-c2nc(-c3ccccc3)c(-c3ccccc3)[nH]2)cc1 [3-(4-Chlorophenyl)-4-(4,5-diphenyl-1H-imidazol-2-yl)-1-phenyl-1H-pyrazole (2b)]
8 | 4.62 | COc1ccc(-c2nn(-c3ccccc3)cc2-c2nc(-c3ccccc3)c(-c3ccccc3)[nH]2)cc1 [4-(4,5-Diphenyl-1H-imidazol-2-yl)-3-(4-methoxyphenyl)-1-phenyl-1H-pyrazole (2e)]
9 | 5.11 | O=[N+]([O-])c1ccc(-n2cc(-c3nc(-c4ccccc4)c(-c4ccccc4)[nH]3)c(-c3ccccc3)n2)cc1 [4-(4,5-Diphenyl-1H-imidazol-2-yl)-1-(4-nitrophenyl)-3-phenyl-1H-pyrazole (2h)]
10 | 5.53 | O=c1oc2ccc(Br)cc2cc1-c1nn(-c2ccccc2)cc1-c1nc(-c2ccccc2)c(-c2ccccc2)[nH]1 [6-Bromo-3-(4-(4,5-diphenyl-1H-imidazol-2-yl)-1-phenyl-1Hpyrazol-3-yl)-2H-chromen 2-one (2k)]
11 | 4.76 | c1ccc(-c2ccc(-c3nn(-c4ccccc4)cc3-c3nc(-c4ccccc4)c(-c4ccccc4)[nH]3)cc2)cc1 [3-([1,1'-Biphenyl]-4-yl)-4-(4,5-diphenyl-1H-imidazol-2-yl)-1-phenyl-1H-pyrazole (2g)]
